Reference: patent US20070142437A1, “CHEMICAL COMPOUNDS” (priority 2005, published 2007)

tested on: HUVEC cells; test: Human Umbilical Vein Endothelial Cell (HUVEC) proliferation assay (BrdU incorporation); assay type: cell-based; details: growth stimulated with VEGF, 72 hrs, read-out: Inhibition of HUVEC proliferation IC50
Procedure: Human Umbilical Vein Endothelial Cell (HUVEC) Proliferation Assay (BrdU Incorporation) Materials
HUVEC cells and EGM-MV (Endothelial cell growth medium—microvascular) were purchased from Clonetics (San Diego, Calif.). VEGF and bFGF were purchased from R&D Systems (Minneapolis, Minn.). Anti-BrdU antibody was obtained from Chemicon International (Temecula, Calif.).
HUVECs were routinely maintained in EGM-MV medium and were used within passage 7. HUVECs were plated at a density of 2500 cells/well in M199 medium containing 5% FBS (Hyclone) in type I collagen coated plate (Becton Dickinson). The plate was incubated at 37° C. overnight. The medium was removed by aspiration, and test compounds were added to each well in a volume of 0.1 ml/well in serum-free M199 medium. Compound concentrations ranged from 1.5 nM to 30 micromolar. The plate was incubated for 30 min at 37° C. Another 0.1 ml of serum-free M199 medium containing BSA and VEGF (or bFGF) was added to give a final concentration of 0.1% BSA and 10 ng/ml VEGF (0.3 ng/ml bFGF). The plate was incubated at 37° C. for 72 hrs. BrdU was added to each well after the first 48 hrs to give a concentration of 10 micromolar. The colorimetric ELISA assay was performed according to manufacturer's (Roche Molecular Sciences) instructions, with detection by absorbance reading at 450 nm. Results were plotted as concentration of test compound vs. absorbance to give an IC50 value for inhibition of BrdU incorporation.

Row | Structure (SMILES) | IC50
1 | COc1ccc(S(=O)(=O)NCC2CCCO2)cc1Nc1ncc(-c2cccc(-c3ccccc3)c2)o1 (stereo not shown) [Example 229, 3-{[5-(1,1′-biphenyl-3-yl)-1,3-oxazol-2-yl]amino}-4-methoxy-N-(tetrahydrofuran-2-ylmethyl)benzenesulfonamide] | < 1000 nM
2 | COc1ccc(S(=O)(=O)NCC2CCCO2)cc1Nc1ncc(-c2ccc(F)cc2)o1 (stereo not shown) [Example 124, 3-{[5-(4-fluorophenyl)-1,3-oxazol-2-yl]amino}-4-methoxy-N-(tetrahydrofuran-2-ylmethyl)benzenesulfonamide] | < 1000 nM
3 | COc1ccc(S(=O)(=O)CC2CCCO2)cc1Nc1ncc(-c2ccc(F)cc2)o1 (stereo not shown) [Example 94, 5-(4-fluorophenyl)-N-{2-methoxy-5-[(tetrahydrofuran-2-ylmethyl)sulfonyl]phenyl}-1,3-oxazol-2-amine] | < 1000 nM
4 | CCS(=O)(=O)c1ccc(OC)c(Nc2ncc(-c3cccc(-c4cccc(F)c4)c3)o2)c1 [Example 207, N-[5-(ethylsulfonyl)-2-methoxyphenyl]-5-(3′-fluoro-1,1′-biphenyl-3-yl)-1,3-oxazol-2-amine] | < 500 nM
5 | CCS(=O)(=O)c1ccc(OC)c(Nc2ncc(-c3cccc(Cl)c3)o2)c1 [Example 137, 5-(3-chlorophenyl)-N-[5-(ethylsulfonyl)-2-methoxyphenyl]-1,3-oxazol-2-amine] | < 1000 nM
6 | CCS(=O)(=O)c1ccc(OC)c(Nc2ncc(-c3cccc(OC4CCOC4)c3)o2)c1 (stereo not shown) [Example 167, N-[5-(ethylsulfonyl)-2-methoxyphenyl]-5-[3-(tetrahydrofuran-3-yloxy)phenyl]-1,3-oxazol-2-amine] | < 1000 nM
7 | CCS(=O)(=O)c1ccc(OC)c(Nc2ncc(-c3cccc(-c4cncn4C)c3)o2)c1 [Example 179, N-[5-(ethylsulfonyl)-2-methoxyphenyl]-5-[3-(1-methyl-1H-imidazol-5-yl)phenyl]-1,3-oxazol-2-amine] | < 500 nM
8 | COc1ccc(S(=O)(=O)N(C)C)cc1Nc1ncc(-c2cccc(-c3ccccc3)c2)o1 [Example 225, 3-{[5-(1,1′-biphenyl-3-yl)-1,3-oxazol-2-yl]amino}-4-methoxy-N,N-dimethylbenzenesulfonamide] | < 500 nM
9 | COc1ccc(S(=O)(=O)NCc2ccccn2)cc1Nc1ncc(-c2ccc(F)cc2)o1 [Example 86, 3-{[5-(4-fluorophenyl)-1,3-oxazol-2-yl]amino}-4-methoxy-N-(pyridin-2-ylmethyl)benzenesulfonamide] | < 500 nM
10 | CCC(CC)S(=O)(=O)c1ccc(OC)c(Nc2ncc(-c3ccc(F)cc3)o2)c1 [Example 90, N-{5-[(1-ethylpropyl)sulfonyl]-2-methoxyphenyl}-5-(4-fluorophenyl)-1,3-oxazol-2-amine] | < 1000 nM
11 | COc1ccc(S(=O)(=O)CC(C)C)cc1Nc1ncc(-c2ccc(F)cc2)o1 [Example 93, 5-(4-fluorophenyl)-N-[5-(isobutylsulfonyl)-2-methoxyphenyl]-1,3-oxazol-2-amine] | < 1000 nM
12 | CCS(=O)(=O)c1ccc(OC)c(Nc2ncc(-c3cccc(F)c3)o2)c1 [Example 141, N-[5-(ethylsulfonyl)-2-methoxyphenyl]-5-(3-fluorophenyl)-1,3-oxazol-2-amine] | < 500 nM
13 | COc1ccc(S(N)(=O)=O)cc1Nc1ncc(-c2cccc(-c3ccccc3)c2)o1 [Example 187, 3-{[5-(1,1′-biphenyl-3-yl)-1,3-oxazol-2-yl]amino}-4-methoxybenzenesulfonamide] | < 500 nM
14 | CCS(=O)(=O)c1ccc(OC)c(Nc2ncc(-c3cccc(-c4ccco4)c3)o2)c1 [Example 181, N-[5-(ethylsulfonyl)-2-methoxyphenyl]-5-[3-(2-furyl)phenyl]-1,3-oxazol-2-amine] | < 500 nM
15 | CCS(=O)(=O)c1ccc(OC)c(Nc2ncc(-c3ccc(Cl)cc3)o2)c1 [Example 132, 5-(4-chlorophenyl)-N-[5-(ethylsulfonyl)-2-methoxyphenyl]-1,3-oxazol-2-amine] | < 1000 nM
16 | COc1cc(Nc2ncc(-c3ccc(F)cc3)o2)cc(OC)c1OC [Example 116, 5-(4-fluorophenyl)-N-(3,4,5-trimethoxyphenyl)-1,3-oxazol-2-amine] | < 1000 nM
17 | COc1ccc(S(=O)(=O)NC(C)C)cc1Nc1ncc(-c2cccc(-c3cccnc3)c2)o1 [Example 223, N-isopropyl-4-methoxy-3-{[5-(3-pyridin-3-ylphenyl)-1,3-oxazol-2-yl]amino}benzenesulfonamide] | < 500 nM
18 | CCS(=O)(=O)c1ccc(OC)c(Nc2ncc(-c3ccc4c(c3)OCCO4)o2)c1 [Example 148, 5-(Z,3-dihydro-1,4-benzodioxin-6-yl)-N-[5-(ethylsulfonyl)-2-methoxyphenyl]-1,3-oxazol-2-amine] | < 1000 nM
19 | CNS(=O)(=O)Cc1ccc(Nc2ncc(-c3ccccc3)o2)cc1 [Example 51, N-methyl-1-{4-[(5-phenyl-1,3-oxazol-2-yl)amino]phenyl}methanesulfonamide] | < 1000 nM

Row | Structure (SMILES) | IC50
20 | COc1cc(Nc2ncc(-c3ccccc3)o2)cc(OC)c1OC [Example 74, 5-phenyl-N-(3,4,5-trimethoxyphenyl)-1,3-oxazol-2-amine] | < 500 nM
21 | COc1cc(Nc2ncc(-c3cccc(-c4ccccc4)c3)o2)cc(OC)c1OC [Example 199, 5-(1,1′-biphenyl-3-yl)-N-(3,4,5-trimethoxyphenyl)-1,3-oxazol-2-amine] | < 500 nM
22 | COc1ccc(S(=O)(=O)NC(C)C)cc1Nc1ncc(-c2ccc(F)cc2)o1 [Example 123, 3-{[5-(4-fluorophenyl)-1,3-oxazol-2-yl]amino}-N-isopropyl-4-methoxybenzenesulfonamide] | < 1000 nM
23 | COc1ccc(S(=O)(=O)NC(C)C)cc1Nc1ncc(-c2cccc(-c3ccccc3)c2)o1 [Example 224, 3-{[5-(1,1′-biphenyl-3-yl)-1,3-oxazoI-2-yl]amino}-N-isopropyl-4-methoxybenzenesulfonamide] | < 500 nM
24 | CCS(=O)(=O)c1ccc(OC)c(Nc2ncc(-c3cccc(-c4cccs4)c3)o2)c1 [Example 172, N-[5-(ethylsulfonyl)-2-methoxyphenyl]-5-(3-thien-2-ylphenyl)-1,3-oxazol-2-amine] | < 500 nM
25 | CCS(=O)(=O)c1ccc(OC)c(Nc2ncc(-c3ccc(C(N)=O)cc3)o2)c1 [Example 134] | < 500 nM
26 | CCC(CC)S(=O)(=O)c1ccc(OC)c(Nc2ncc(-c3cccc(-c4ccccn4)c3)o2)c1 [Example 192, N-{5-[(1-ethylpropyl)sulfonyl]-2-methoxyphenyl}-5-(3-pyridin-2-ylphenyl)-1,3-oxazol-2-amine] | < 1000 nM
27 | COc1ccc(S(=O)(=O)C2CCOC2)cc1Nc1ncc(-c2ccc(F)cc2)o1 (stereo not shown) [Example 95, 5-(4-fluorophenyl)-N-[2-methoxy-5-(tetrahydrofuran-3-ylsulfonyl)phenyl]-1,3-oxazol-2-amine] | < 1000 nM
28 | CCS(=O)(=O)c1ccc(OC)c(Nc2ncc(-c3cccc(O)c3)o2)c1 [Example 158] | < 1000 nM
29 | CNS(=O)(=O)c1ccc(OC)c(Nc2ncc(-c3cccc(-c4ccc(F)cc4)c3)o2)c1 [Example 189, 3-{[5-(4′-fluoro-1,1′-biphenyl-3-yl)-1,3-oxazol-2-yl]amino}-4-methoxy-N-methylbenzenesulfonamide] | < 500 nM
30 | COc1ccc(S(=O)(=O)C(C)C)cc1Nc1ncc(-c2cccc(-c3ccccn3)c2)o1 [Example 193, N-[5-(isopropylsulfonyl)-2-methoxyphenyl]-5-(3-pyridin-2-ylphenyl)-1,3-oxazol-2-amine] | < 1000 nM
31 | COc1ccc(S(=O)(=O)C(C)c2ccncc2)cc1Nc1ncc(-c2cccc(-c3ccccc3)c2)o1 (stereo not shown) [Example 196, 5-(1,1′-biphenyl-3-yl)-N-{2-methoxy-5-[(1-pyridin-4-ylethyl)sulfonyl]phenyl}-1,3-oxazol-2-amine] | < 500 nM
32 | COc1ccc(S(=O)(=O)NCC2CC2)cc1Nc1ncc(-c2cccc(-c3ccccn3)c2)o1 [Example 221, N-(cyclopropylmethyl)-4-methoxy-3-{[5-(3-pyridin-2-ylphenyl)-1,3-oxazol-2-yl]amino}benzenesulfonamide] | < 1000 nM
33 | C=Cc1cccc(-c2cnc(Nc3cc(S(=O)(=O)CC)ccc3OC)o2)c1 [Example 175, N-[5-(ethylsulfonyl)-2-methoxyphenyl]-5-(3-vinylphenyl)-1,3-oxazol-2-amine] | < 1000 nM
34 | CCS(=O)(=O)c1ccc(OC)c(Nc2ncc(-c3cccc(Br)c3)o2)c1 [Example 100, 5-(3-bromophenyl)-N-[5-(ethylsulfonyl)-2-methoxyphenyl]-1,3-oxazol-2-amine] | < 1000 nM
35 | CCN(CC)S(=O)(=O)c1ccc(OC)c(Nc2ncc(-c3cccc(-c4ccccc4)c3)o2)c1 [Example 228, 3-{[5-(1,1′-biphenyl-3-yl)-1,3-oxazol-2-yl]amino}-N,N-diethyl-4-methoxybenzenesulfonamide] | < 500 nM
36 | COc1ccc(S(N)(=O)=O)cc1Nc1ncc(-c2cccc(-c3cccc(F)c3)c2)o1 [Example 214, 3-{[5-(3′-fluoro-1,1′-biphenyl-3-yl)-1,3-oxazol-2-yl]amino}-4-methoxybenzenesulfonamide] | < 1000 nM
37 | CCS(=O)(=O)c1ccc(OC)c(Nc2ncc(-c3cccc(-c4ccccc4F)c3)o2)c1 [Example 215, N-[5-(ethylsulfonyl)-2-methoxyphenyl]-5-(2′-fluoro-1,1′-biphenyl-3-yl)-1,3-oxazol-2-amine] | < 500 nM
